Assay results as given in PubChem BioAssay (NCI).
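In this assay, cells in 96-well plates receive the compound at five concentrations for 48 hours. Endpoints are linearly interpolated between the surrounding concentrations. TGI marks complete inhibition of growth.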

Columns and labels:
Experiment in all cases: NCI anticancer screen, dose series, 48 h
ACHN renal = tested on: ACHN renal
COLO 205 colon = tested on: COLO 205 colon
EKVX NSCLC = tested on: EKVX NSCLC
HCC-2998 colon = tested on: HCC-2998 colon
HL-60(TB) leukemia = tested on: HL-60(TB) leukemia
HOP-92 NSCLC = tested on: HOP-92 NSCLC
IGROV1 ovarian = tested on: IGROV1 ovarian
KM12 colon = tested on: KM12 colon
M14 melanoma = tested on: M14 melanoma
RPMI-8226 leukemia = tested on: RPMI-8226 leukemia
RXF 393 renal = tested on: RXF 393 renal
SF-268 CNS = tested on: SF-268 CNS
SK-OV-3 ovarian = tested on: SK-OV-3 ovarian
SN12C renal = tested on: SN12C renal
SW-620 colon = tested on: SW-620 colon
TK-10 renal = tested on: TK-10 renal
BT-549 breast = tested on: BT-549 breast
DU-145 prostate = tested on: DU-145 prostate
OVCAR-8 ovarian = tested on: OVCAR-8 ovarian

Compound	TGI (ACHN renal) [µM]	TGI (COLO 205 colon) [µM]	TGI (EKVX NSCLC) [µM]	TGI (HCC-2998 colon) [µM]	TGI (HL-60(TB) leukemia) [µM]	TGI (HOP-92 NSCLC) [µM]	TGI (IGROV1 ovarian) [µM]	TGI (KM12 colon) [µM]	TGI (M14 melanoma) [µM]	TGI (RPMI-8226 leukemia) [µM]	TGI (RXF 393 renal) [µM]	TGI (SF-268 CNS) [µM]	TGI (SK-OV-3 ovarian) [µM]	TGI (SN12C renal) [µM]	TGI (SW-620 colon) [µM]	TGI (TK-10 renal) [µM]	TGI (BT-549 breast) [µM]	TGI (DU-145 prostate) [µM]	TGI (OVCAR-8 ovarian) [µM]
CCN1C(=O)C(N=[N+]=[N-])(c2ccccc2)C(=O)c2ccccc21 (configuration not stated)	> 100	> 100	> 100	> 100	> 100	> 100	> 100	> 100	> 100	> 100	> 100	> 100	> 100	> 100	> 100	> 100			
Nc1ccc(-c2nc3ccccc3s2)cc1F	74.4	48.3	11.8			> 100	> 100	> 100	> 100		> 100	> 100	> 100	> 100	> 100		> 100	> 100	> 100
Oc1c2c(c3c4c1N=CC=4CCN=3)C1(C=C(Br)C(O)C(Br)=C1)CCN2 (configuration not stated)		0.418	4.94	4.61	2.08	8.08	2.86	6.16		7.41	7.57	5.75	26	3.44	4.19				2.91
O=C(/C=C/c1cccs1)c1ccc(Cl)s1	> 100	> 10	> 100	34.7	64.1		> 10	44.3	> 100	44		> 100	> 100	34.8	51.7	> 100		> 100	> 100
COc1ccc(/C(Cl)=C(\CNc2ccccn2)c2ccccc2)cc1OC	> 100	> 100	> 100	> 100	> 100	> 100	> 100	> 100		> 100	> 100	> 100	> 100	> 100	> 100	> 100		> 100	> 100
O=C1c2cscc2C(=O)c2c(OCc3ccccc3)ccc(OCc3ccccc3)c21	> 100	> 100	> 100	> 100	> 100	> 100	> 100	> 100	> 100	> 100	> 100	> 100	> 100	> 100	> 100	> 100		> 100	> 100
COc1cc(O)c2c(c1O)C(=O)c1cc(C)ncc1C2=O	> 50	> 50	> 50	> 50	> 50		> 50	> 50	> 50	> 50	> 50	> 50	35.7	> 50	> 50	> 50			> 50
